Read-outs that look alike come from different tables or passages of the source.
Target: T1, SIRT1 (Homo sapiens, UniProt Q96EB6)
T1 sequence (Q96EB6 1-747): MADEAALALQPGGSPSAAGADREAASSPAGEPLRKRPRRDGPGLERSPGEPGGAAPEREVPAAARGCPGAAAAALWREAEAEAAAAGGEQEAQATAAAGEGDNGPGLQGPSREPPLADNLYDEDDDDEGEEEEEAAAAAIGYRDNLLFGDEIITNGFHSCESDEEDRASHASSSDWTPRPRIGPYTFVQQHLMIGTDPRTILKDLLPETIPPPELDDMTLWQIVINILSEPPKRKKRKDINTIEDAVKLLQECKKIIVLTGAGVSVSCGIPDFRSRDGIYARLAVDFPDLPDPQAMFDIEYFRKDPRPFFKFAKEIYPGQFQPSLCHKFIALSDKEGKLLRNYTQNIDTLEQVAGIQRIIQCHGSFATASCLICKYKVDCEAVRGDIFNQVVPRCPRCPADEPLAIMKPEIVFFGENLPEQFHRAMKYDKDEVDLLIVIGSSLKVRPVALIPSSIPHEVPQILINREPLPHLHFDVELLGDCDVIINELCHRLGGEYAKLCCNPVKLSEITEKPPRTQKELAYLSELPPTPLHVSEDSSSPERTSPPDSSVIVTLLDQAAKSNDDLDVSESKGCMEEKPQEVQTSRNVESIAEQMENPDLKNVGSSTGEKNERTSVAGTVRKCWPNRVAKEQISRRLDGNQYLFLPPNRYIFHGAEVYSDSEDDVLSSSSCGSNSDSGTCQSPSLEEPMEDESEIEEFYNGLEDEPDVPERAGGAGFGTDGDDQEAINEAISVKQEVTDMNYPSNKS
Experiment: Trp mass spectrometry assay of SIRT1 activity
Format: biochemical
Settings: for Trp EC1.5 (μM): concentration giving 150% activation of SIRT1; for Emax: read-out: Trp % Fold Act
Source text: Mass spectrometry based assays were used to identify modulators of SIRT1 activity. The TAMRA based assay utilized a peptide having 20 amino acid residues as follows: Ac-EE-K(biotin)-[…](Ac)NleSTEG-K(5TMR)-EE-NH2 (SEQ ID NO: 1), wherein K(Ac) is an acetylated lysine residue and Nle is a norleucine. The peptide was labeled with the fluorophore 5TMR (excitation 540 nm/emission 580 nm) at the C-terminus. The sequence of the peptide substrate was based on p53 with several modifications. In addition, the methionine residue naturally present in the sequence was replaced with the norleucine because the methionine may be susceptible to oxidation during synthesis and purification. The Trp based assay utilized a peptide having an amino acid residues as follows: Ac-R-H-K-K(Ac)-W-NH2 (SEQ ID NO: 2).
The Trp mass spectrometry assay was conducted as follows. 0.5 μM peptide substrate and 120 μM βNAD^+ were incubated with 10 nM SIRT1 for 25 minutes at 25° C. in a reaction buffer (50 mM HEPES pH 7.5, […], 1 mM DTT, 0.05% BSA). The SIRT1 protein was obtained by cloning the SirT1 gene into a T7-promoter containing vector, which was then expressed in BL21(DE3) bacterial cells and purified as described in further detail below. Test compound was added at varying concentrations to this reaction mixture and the resulting reactions were monitored. After the 25 minute incubation with SIRT1, 10 μL of 10% formic acid was added to stop the reaction. The resulting reactions were sealed and frozen for later mass spec analysis. The relative SIRT1 activity was then determined by measuring the amount of O-acetyl-ADP-ribose (OAADPR) formed (or, alternatively, the amount of deacetylated Trp peptide generated) by the NAD-dependent sirtuin deacetylation reaction in the presence of varying concentrations of the test compound versus control reactions lacking the test compound. The degree to which the test agent activated deacetylation by SIRT1 was expressed as EC1.5 (i.e., the concentration of compound required to increase SIRT1 activity by 50% over the control lacking test compound), and Percent Maximum Activation (i.e., the maximum activity relative to control (100%) obtained for the test compound).
A control for inhibition of sirtuin activity was conducted by adding 1 μL of 500 mM nicotinamide as a negative control at the start of the reaction (e.g., permits determination of maximum sirtuin inhibition). A control for activation of sirtuin activity was conducted using 10 nM of sirtuin protein, with 1 μL of DMSO in place of compound, to determine the amount of deacetylation of the substrate at a given time point within the linear range of the assay. This time point was the same as that used for test compounds and, within the linear range, the endpoint represents a change in velocity.
For the above assay, SIRT1 protein was expressed and purified as follows. The SirT1 gene was cloned into a T7-promoter containing vector and transformed into BL21(DE3). The protein was expressed by induction with 1 mM IPTG as an N-terminal His-tag fusion protein at 18° C. overnight and harvested at 30,000×g. Cells were lysed with lysozyme in lysis buffer (50 mM Tris-HCl, 2 mM Tris[2-carboxyethyl]phosphine (TCEP), 10 μM ZnCl2, 200 mM NaCl) and further treated with sonication for […] for complete lysis. The protein was purified over a Ni-NTA column (Amersham) and fractions containing pure protein were pooled, concentrated and run over a sizing column (Sephadex S200 26/60 global). The peak containing soluble protein was collected and run on an Ion-exchange column (MonoQ). Gradient elution (200 mM-500 mM NaCl) yielded pure protein. This protein was concentrated and dialyzed against dialysis buffer (20 mM Tris-HCl, 2 mM TCEP) overnight. The protein was aliquoted and frozen at −80° C. until further use.

[1] = Trp assay, percent maximum fold activation
[2] = percent maximum fold activation of SIRT1, Trp peptide substrate

SMILES	Trp EC1.5 (μM) (Trp assay)	Emax [1]	Emax [2]
CN(C)[C@H]1CCN(c2ccc3ncc(C(=O)Nc4ccccn4)n3n2)C1 [Compound 866]	B (EC1.5 1-25 μM)	≥ 350%	–
Cc1cncc(NC(=O)c2c(C)nc3c(OC[C@H](O)CO)cc(-c4ccccc4C(F)(F)F)nn23)c1 [Compound 864]	A (EC1.5<1 μM)	≥ 350%	–
Cc1nc2c(OC[C@H](O)CO)cc(-c3ccccc3C(F)(F)F)nn2c1C(=O)Nc1ccc(F)cn1 [Compound 835]	A (EC1.5<1 μM)	≥ 350%	–
Cc1cccc(NC(=O)c2cnc3ccc(-c4cccc(OC[C@H](O)CO)c4)nn23)n1 [Compound 848]	A (EC1.5<1 μM)	≥ 350%	–
COc1nccc(NC(=O)c2cnc3ccc(N4CC[C@H](F)C4)nn23)n1 [Compound 918]	B (EC1.5 1-25 μM)	< 350%	–
Cc1nc2c(OC[C@H](O)CO)cc(-c3ccccc3C(F)(F)F)nn2c1C(=O)Nc1cccnc1 [Compound 862]	A (EC1.5<1 μM)	≥ 350%	–
Cc1cc(C)nc(NC(=O)c2c(C)nc3c(OC[C@H](O)CO)cc(-c4ccccc4C(F)(F)F)nn23)c1 [Compound 834]	A (EC1.5<1 μM)	≥ 350%	–
CN(C)c1cnnc(NC(=O)c2cnc3ccc(N4CC[C@H](F)C4)nn23)c1 [Compound 924]	B (EC1.5 1-25 μM)	< 350%	–
O=C(Nc1cc(OC[C@@H](O)CO)cnn1)c1cnc2ccc(N3CC[C@H](F)C3)nn12 [Compound 917]	B (EC1.5 1-25 μM)	< 350%	–
O=C(Nc1cnccn1)c1cnc2ccc(N3CC(F)(F)C3)nn12 [Compound 926]	C (EC1.5>25 μM)	< 350%	–
O=C(Nc1cccnc1)c1cnc2ccc(N3CC(F)(F)C3)nn12 [Compound 913]	B (EC1.5 1-25 μM)	< 350%	–
Cc1nc2ccc(N3CC[C@H](N(C)C)C3)nn2c1C(=O)Nc1cccnn1 [Compound 880]	B (EC1.5 1-25 μM)	< 350%	–
O=C(Nc1ccncn1)c1cnc2ccc(N3CC(F)(F)C3)nn12 [Compound 921]	C (EC1.5>25 μM)	< 350%	–
Cc1nc2ccc(N3CC[C@H](F)C3)nn2c1C(=O)Nc1cccnc1 [Compound 841]	A (EC1.5<1 μM)	≥ 350%	–
Cc1ccc(NC(=O)c2cnc3ccc(N4CC[C@H](F)C4)nn23)cn1 [Compound 920]	B (EC1.5 1-25 μM)	< 350%	–
Cn1ccc(NC(=O)c2cnc3ccc(N4CC[C@H](F)C4)nn23)n1 [Compound 891]	B (EC1.5 1-25 μM)	≥ 350%	–
CN(C)[C@H]1CCN(c2ccc3ncc(C(=O)Nc4ccncn4)n3n2)C1 [Compound 882]	B (EC1.5 1-25 μM)	< 350%	–
O=C(Nc1ccc(C(F)(F)F)nc1)c1cnc2ccc(N3CC[C@H](F)C3)nn12 [Compound 919]	C (EC1.5>25 μM)	< 350%	–
O=C(Nc1cncnc1)c1cnc2ccc(N3CC[C@H](F)C3)nn12 [Compound 888]	C (EC1.5>25 μM)	< 350%	–

The next lines start with the values.

Trp EC1.5 (μM) (Trp assay)	Emax [1]	Emax [2]	SMILES
–	–	≥ 350%	O=C(Nc1cc(-c2cnco2)ccn1)c1cnn2ccc(N3CCC[C@@H]3C(F)(F)F)nc12 [Compound 1091]
–	≥ 350%	–	O=C(Nc1ccccn1)c1cnc2ccc(N3CCC[C@H](F)C3)nn12 [Compound 986]
B (EC1.5 1-25 μM)	< 350%	–	O=C(Nc1cccnc1)c1cnc2ccc(N3CCC(F)(F)CC3)nn12 [Compound 928]
–	≥ 350%	–	CC1(C)CCN(c2ccc3ncc(C(=O)Nc4cccnc4)n3n2)C1 [Compound 953]
–	–	≥ 350%	O=C(Nc1cccnn1)c1cnn2ccc(N3CCC(C(F)(F)F)C3)nc12 (stereo not shown) [Compound 1014]
–	–	≥ 350%	O=C(Nc1cccnn1)c1cnn2ccc(N3CCCC(C(F)(F)F)C3)nc12 (stereo not shown) [Compound 1023]
–	–	≥ 350%	Cc1nn2ccc(N3CCC[C@H]3C(F)(F)F)nc2c1C(=O)Nc1cnccn1 [Compound 1046]
–	–	≥ 350%	CC1CCCN1c1ccn2ncc(C(=O)Nc3ccccn3)c2n1 (stereo not shown) [Compound 1037]
–	–	≥ 350%	C[C@H]1CCCN1c1ccc2ncc(C(=O)Nc3cccnn3)n2n1 [Compound 1055]
–	–	≥ 350%	C[C@@H]1CN(c2ccc3ncc(C(=O)Nc4cccnn4)n3n2)CCO1 [Compound 1003]
–	–	≥ 350%	O=C(Nc1cncc(F)c1)c1cnn2ccc(N3CCCCC3C(F)(F)F)nc12 (stereo not shown) [Compound 1010]
–	–	≥ 350%	Cc1nc2ccc(N3CCC[C@H]3C(F)(F)F)nn2c1C(=O)Nc1cncc(F)c1 [Compound 1017]
–	< 350%	–	O=C(Nc1cccnn1)c1cnc2ccc(N3CC[C@H](O)C3)nn12 [Compound 984]
–	–	< 350%	C[C@H]1CCCN1c1ccc2ncc(C(=O)Nc3cnccn3)n2n1 [Compound 1054]
–	–	≥ 350%	O=C(Nc1cccnc1)c1cnn2ccc(N3CCC[C@@H]3C(F)(F)F)nc12 [Compound 1076]
–	< 350%	–	CC1CCN(c2ccc3ncc(C(=O)Nc4ccccn4)n3n2)C1 (stereo not shown) [Compound 975]
–	–	< 350%	CC1CCCN1c1ccn2ncc(C(=O)Nc3cnccn3)c2n1 (stereo not shown) [Compound 1041]
–	–	≥ 350%	Cc1nc2ccc(N3CCC[C@H]3C(F)(F)F)nn2c1C(=O)Nc1ccccn1 [Compound 1015]
–	–	≥ 350%	O=C(Nc1ccccn1)c1cnn2ccc(N3CCC(C(F)(F)F)C3)nc12 (stereo not shown) [Compound 1011]
–	–	≥ 350%	O=C(Nc1ccncn1)c1cnn2ccc(N3CCC(C(F)(F)F)CC3)nc12 [Compound 1063]
–	< 350%	–	CC1(C)CCN(c2ccc3ncc(C(=O)Nc4ccncn4)n3n2)C1 [Compound 972]
B (EC1.5 1-25 μM)	< 350%	–	CO[C@H]1CCN(c2ccc3ncc(C(=O)Nc4ccncc4F)n3n2)C1 [Compound 936]
–	≥ 350%	–	Cc1nc2ccc(N3CCC(C(F)(F)F)C3)nn2c1C(=O)Nc1cccnn1 (stereo not shown) [Compound 998]
–	–	≥ 350%	Cc1nc2ccc(N3CCCC3C(F)(F)F)nn2c1C(=O)Nc1cccnn1 (stereo not shown) [Compound 1006]
–	–	≥ 350%	Cc1nn2ccc(N3CCC[C@H]3C(F)(F)F)nc2c1C(=O)Nc1cccnn1 [Compound 1034]
–	–	≥ 350%	Cc1nn2ccc(N3CCC[C@@H]3C(F)(F)F)nc2c1C(=O)Nc1ccncn1 [Compound 1068]
–	–	≥ 350%	O=C(Nc1cccc(-c2cnco2)n1)c1cnn2ccc(N3CCC(C(F)(F)F)CC3)nc12 [Compound 1083]

— patent US9957271B2, “Substituted bicyclic aza-heterocycles and analogues as sirtuin modulators” (GlaxoSmithKline, LLC, priority 2012, dated 2018)
